Data reported in DBAASP.
Converted amounts (≈) assume the structure as drawn.

What was measured:
Assay in all cases: ≥ marks a high value that may be exact or a test limit, other limits are often not marked, values filed in µg/mL are converted to µM
Bacillus subtilis DELTA = tested on: Bacillus subtilis DELTA
Candida parapsilosis = tested on: Candida parapsilosis
[1] = tested on: Escherichia coli DH5alpha
[2] = tested on: Pseudomonas aeruginosa PAO1
[3] = tested on: Zymomonas mobilis ATCC 10988
Escherichia coli UB1005 = tested on: Escherichia coli UB1005
[4] = tested on: Pseudomonas aeruginosa H374
[5] = tested on: Pseudomonas aeruginosa H547
[6] = tested on: Pseudomonas aeruginosa H744
[7] = tested on: Pseudomonas aeruginosa K799
[8] = tested on: Pseudomonas aeruginosa Z61
[9] = tested on: Salmonella enterica subsp. enterica serovar Typhimurium ATCC 14028s

MIC (Bacillus subtilis DELTA)	MIC (Candida parapsilosis)	MIC [1]	MIC [2]	MIC [3]	MIC (Escherichia coli UB1005)	MIC [4]	MIC [5]	MIC [6]	MIC [7]	MIC [8]	MIC [9]	SMILES
6.15 µM (≈ 6.99 µg/mL)	6.15 µM (≈ 6.99 µg/mL)	≥ 87.8 µM	2.63 µM (≈ 3 µg/mL)	13.2 µM (≈ 15 µg/mL)								CC[C@H](C)[C@H](NC(=O)[C@H](CCCCN)NC(=O)[C@H](CC(C)C)NC(=O)[C@H](CC(C)C)NC(=O)CN)C(=O)N[C@H](C(=O)N[C@@H](CCCCN)C(=O)N[C@@H](CCCCN)C(=O)N[C@@H](CC(C)C)C(=O)N[C@@H](CC(C)C)C(N)=O)[C@@H](C)CC [GLLKIIKKLL]
					11.5 µM (≈ 32 µg/mL)	22.9 µM (≈ 64 µg/mL)	22.9 µM (≈ 64 µg/mL)	22.9 µM (≈ 64 µg/mL)	22.9 µM (≈ 64 µg/mL)	22.9 µM (≈ 64 µg/mL)	22.9 µM (≈ 64 µg/mL)	CC[C@H](C)[C@H](NC(=O)[C@H](CC(C)C)NC(=O)[C@@H]1CCCN1C(=O)[C@H](CCCCN)NC(=O)[C@H](C)NC(=O)[C@@H](NC(=O)[C@@H](NC(=O)[C@H](CC(C)C)NC(=O)[C@@H](NC(=O)[C@H](CO)NC(=O)[C@@H](NC(=O)[C@H](CCCCN)NC(=O)[C@H](C)NC(=O)[C@H](CO)NC(=O)[C@@H](NC(=O)[C@H](CC(C)C)NC(=O)[C@H](CC(C)C)NC(=O)[C@H](CCCCN)NC(=O)[C@@H](NC(=O)[C@H](Cc1ccccc1)NC(=O)[C@H](CO)NC(=O)[C@H](CCCCN)NC(=O)[C@H](CCCCN)NC(=O)[C@@H](N)CCCCN)[C@@H](C)CC)[C@@H](C)O)C(C)C)C(C)C)[C@@H](C)O)[C@@H](C)O)C(=O)N[C@@H](CO)C(=O)N[C@@H](CO)C(=O)O [KKKSFIKLLTSAKVSVLTTAKPLISS]
					1.43 µM (≈ 4 µg/mL)	2.85 µM (≈ 8 µg/mL)	11.4 µM (≈ 32 µg/mL)	5.71 µM (≈ 16 µg/mL)	22.8 µM (≈ 64 µg/mL)	11.4 µM (≈ 32 µg/mL)	15.3 µM (≈ 43 µg/mL)	CC[C@H](C)[C@H](NC(=O)[C@H](CC(C)C)NC(=O)[C@H](C)NC(=O)[C@@H]1CCCN1C(=O)[C@H](CC(C)C)NC(=O)CNC(=O)[C@@H](NC(=O)[C@@H](NC(=O)[C@H](CC(C)C)NC(=O)[C@@H](NC(=O)[C@H](CCCCN)NC(=O)[C@H](CO)NC(=O)CNC(=O)CNC(=O)[C@H](CCCCN)NC(=O)[C@@H](NC(=O)[C@H](CC(C)C)NC(=O)[C@H](CC(N)=O)NC(=O)[C@H](CCCCN)NC(=O)[C@@H](NC(=O)[C@H](Cc1ccccc1)NC(=O)[C@H](CO)NC(=O)[C@H](CCCCN)NC(=O)[C@H](Cc1c[nH]c2ccccc12)NC(=O)[C@@H](N)CCCCN)[C@@H](C)CC)[C@@H](C)O)[C@@H](C)CC)[C@@H](C)O)[C@@H](C)O)C(=O)N[C@@H](CO)C(=O)O [KWKSFIKNLTKGGSKILTTGLPALIS]
